The NIST ThermoML archive (doi:10.1016/j.fluid.2010.11.026)

Conditions: Liquid, Closed cell (Static) method

CCCO [propan-1-ol]
Conditions | vapor or sublimation pressure [kPa]
334.53 K | 21.9
342.07 K | 31.2
349.12 K | 42.9
353.96 K | 52.7
357.95 K | 62.4
361.25 K | 71.4
364.3 K | 80.7
367.51 K | 91.6
370.44 K | 102.7

CCO [ethanol]
Conditions | vapor or sublimation pressure [kPa]
317 K | 21.9
325.12 K | 32.5
330.28 K | 41.3
335.45 K | 52
339.58 K | 62.3
342.32 K | 70
345.79 K | 80.9
348.45 K | 90.2
351.31 K | 101.4

CCCOC(C)=O [propyl ethanoate]
Conditions | vapor or sublimation pressure [kPa]
331.7 K | 22.2
340.16 K | 31.1
348.06 K | 41.8
353.27 K | 50.4
359.55 K | 62.7
363.29 K | 71
367.42 K | 81.4
371.07 K | 91.5
374.29 K | 101.4
